Legend:
[1] = tested on: VEGF-expressing, murine endothelial cells (MS-1 VEGF, ATCC); assay: Photodynamic cell viability by trypan blue exclusion; format: cell-based; conditions: for cell viability (trypan blue exclusion) compared with Dulbecco's PBS controls: laser-exposed (647 nm, 56.5 J/cm), verteporfin 40 μg/ml, P<0.0001
Protocol: FIG. 3 is a graph showing the mean percent cell viability by trypan blue exclusion over eight experimental runs in 24-well culture plates for VEGF-expressing endothelial cells in Dulbecco's phosphate buffered saline (“DPBS”), cells incubated with verteporfin ([sequence]) at 40 μg/ml (“Verteporfin”), and cells incubated with verteporfin ([sequence]) conjugated to anti-VEGF antibody (“Conjugate”). Error bars indicate 1 standard deviation from the mean. The cells received either no laser treatment or were exposed to krypton-ion CW laser (647 nm) at a total light dosage of 56.5 J/cm for either 1 hour (left) or 24 hours (right).
Experiments were conducted in a line of cultured, VEGF-expressing, murine erdothelial cells (MS-1 VEGF, ATCC). Cells were grown in 24-well culture plates under standard cell culture conditions in Dulbecco's minimal essential medium (DMEM) with 10% fetal calf serum. Cells were incubated for one hour with either phosphate buffered saline solution alone, verteporfin at 40 μg/ml, or verteporfin-anti-VEGF antibody conjugate (FIG. 2A). All cells were washed twice with phosphate buffered saline following incubation to remove unbound photosensitizer. The photosensitizer was excited by exposing selected wells to the krypton-ion CW laser (647 nm) at a total light dosage of 56.5 J/cm, which is the recommended ophthalmic light dosage (FIG. 2A). For each treatment condition, there were laser-exposed and non-exposed groups. Following laser exposure, cells were incubated for either 1 or 24 hours, and cell viability was assessed using trypan blue exclusion.

[2] = tested on: MS-1 vascular endothelial cells; assay: Binding kinetics: fluorescence intensity of labeled MS-1 cells in confocal micrographs; format: cell-based, murine; conditions: within the first 10 minutes of labeling (FIG. 7)
Protocol: FIG. 7 is a graph of fluorescence intensity of conjugate-labeled and VISUDYNE-labeled MS-1 vascular endothelial cells as a function of incubation time. The fluorescence intensity of confocal micrographs was determined with the “histogram” analysis tool of the ImagePro image processing software program (Media Cybernetics; Silver Springs, Md.). Intensity is expressed as the accumulated pixel counts in the image.
In order to provide a more quantitative comparison of the binding kinetics of the conjugate and the native VISUDYNE, the fluorescence intensity of the MS-1 cells labeled for varying durations was measured in a series of confocal micrographs using the “histogram” tool of ImagePro image processing program (Media Cybernetics; Silver Springs, Md.). […] Accordingly, if the laser activation were to be applied within 10 minutes of application of the conjugate, essentially maximum photodynamic effect would be realized. Targets not expressing the VEGF factor would not be as strongly labeled. This improved selectivity of the conjugate for VEGF-expressing targets is a distinct advantage over the native VISUDYNE.

verteporfin
cell viability (trypan blue exclusion) compared with Dulbecco's PBS controls ([1]; 1 hour after laser): large losses of viability
cell viability (trypan blue exclusion) compared with Dulbecco's PBS controls ([1]; 24 hours after laser): large losses of viability
cell viability without laser exposure ([1]; no laser, possible toxicity or low-level activation by ambient light): reduced viability
binding to the target cells (fluorescence intensity) [2]: approximately 50 % of maximum binding

Reference: US20060231107A1, “Antibody-targeted photodynamic therapy” (priority 2003, published 2006)
